The record followed here is article PMC8977229 (Journal of molecular biology, 2022).

For orientation: Kd means the concentration at which binding is half-saturated. Read a low Kd as higher affinity.

Structures are written as SMILES.

The target of the assay is T1, FraR (Salmonella enterica, UniProt Q8ZLC9).
T1 sequence (Q8ZLC9 1-239): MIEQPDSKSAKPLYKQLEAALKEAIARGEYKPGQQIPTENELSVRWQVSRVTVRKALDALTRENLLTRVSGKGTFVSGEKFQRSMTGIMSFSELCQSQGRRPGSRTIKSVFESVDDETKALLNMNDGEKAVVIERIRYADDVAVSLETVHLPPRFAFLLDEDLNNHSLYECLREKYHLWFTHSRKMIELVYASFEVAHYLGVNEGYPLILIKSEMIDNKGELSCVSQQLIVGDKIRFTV
As to the kind of experiment: online buffer exchange native MS titration. Format: binding.

`O=C(O)C[C@H](NCC(=O)[C@@H](O)[C@H](O)[C@H](O)COP(=O)(O)O)C(=O)O` [6-P-F-Asp, 6-phosphofructose-aspartate] showed a dissociation constant (Kd) of 3.8 ± 0.6 µM.
